Data on 27 compounds can be found in article PMC2248166, “Quantitative peptide binding motifs for 19 human and mouse MHC class I molecules derived using positional scanning combinatorial peptide libraries” (Immunome Research, 2008).

What is called pIC50 is the IC50 on a negative log10 scale, so that one unit is a factor of ten.

pIC50: −log10 of the molar value. Where a SMILES comes first, the peptide text is derived from it.

This experiment concerns the target HLA A*3201 (Homo sapiens, UniProt P04439, A270S/D101S/D185E/E176V/E277Q/F133L/G103R/G107R/G231S/H175R/I121M/I218V/I322F/K168Q/L105A/L300P/L318F/M331R/P208A/P217A/Q94H/R106L/R138Q/S129P/T104I/T323A/T345S/V100E/V321M/V358M). The experiment can be described thus: biochemical. The experiment is classed as binding.

Compound `CC[C@H](C)[C@H](NC(=O)[C@H](Cc1ccccc1)NC(=O)[C@@H](NC(=O)[C@H](CCC(N)=O)NC(=O)[C@@H](N)CCCNC(=N)N)[C@@H](C)CC)C(=O)N[C@@H](Cc1c[nH]cn1)C(=O)N[C@@H](Cc1ccc(O)cc1)C(=O)N[C@@H](CO)C(=O)N[C@H](C(=O)O)C(C)C` [3102.0296] (H-RQIFIHYSV-OH) had a pIC50 of 9.00.

`CC[C@H](C)[C@H](NC(=O)[C@H](CC(N)=O)NC(=O)[C@H](CC(N)=O)NC(=O)[C@H](CC(C)C)NC(=O)[C@@H](NC(=O)[C@H](CC(N)=O)NC(=O)[C@H](Cc1ccc(O)cc1)NC(=O)[C@H](CC(C)C)NC(=O)[C@@H](N)Cc1c[nH]cn1)[C@@H](C)CC)C(=O)O` [3102.0432] (H-HLYNILNNI-OH) showed a pIC50 of 7.14.

As for `CC[C@H](C)[C@H](NC(=O)[C@@H](NC(=O)[C@@H](N)CO)[C@@H](C)CC)C(=O)N[C@@H](CC(N)=O)C(=O)N[C@@H](CO)C(=O)N[C@@H](CC(N)=O)C(=O)N[C@H](C(=O)N[C@H](C(=O)N[C@@H](Cc1c[nH]c2ccccc12)C(=O)O)[C@@H](C)O)C(C)C` [3102.0419] (H-SIINSNVTW-OH), the pIC50 was 7.96.

In turn, `CC[C@H](C)[C@H](NC(=O)[C@H](CC(C)C)NC(=O)[C@H](CC(N)=O)NC(=O)[C@H](C)NC(=O)[C@H](Cc1ccccc1)NC(=O)[C@H](CCCNC(=N)N)NC(=O)[C@H](CO)NC(=O)[C@@H](NC(=O)[C@@H](N)CCCNC(=N)N)[C@@H](C)CC)C(=O)O` [3102.0360] (H-RISRFANLI-OH) showed a pIC50 of 8.21.

`CC[C@H](C)[C@H](NC(=O)[C@H](C)NC(=O)[C@H](CC(N)=O)NC(=O)[C@@H](NC(=O)[C@@H]1CCCN1C(=O)[C@H](CCC(=O)O)NC(=O)[C@@H](NC(=O)[C@H](CC(C)C)NC(=O)[C@@H](N)CCCCN)[C@@H](C)CC)C(C)C)C(=O)O` [3102.0321] (H-KLIEPVNAI-OH) showed a pIC50 of 7.96.

In turn, `C[C@@H](O)[C@H](NC(=O)CN)C(=O)N[C@@H](Cc1c[nH]cn1)C(=O)N[C@@H](Cc1ccc(O)cc1)C(=O)N[C@@H](CCC(N)=O)C(=O)N[C@@H](CC(N)=O)C(=O)N[C@@H](Cc1c[nH]cn1)C(=O)NCC(=O)N[C@@H](Cc1ccccc1)C(=O)O` [3102.0417] (H-GTHYQNHGF-OH) had a pIC50 of 8.22.

Compound `CC[C@H](C)[C@H](NC(=O)[C@@H](NC(=O)[C@@H](NC(=O)[C@@H](NC(=O)[C@@H](NC(=O)[C@@H](NC(=O)[C@H](CC(N)=O)NC(=O)[C@@H](NC(=O)[C@@H](N)C(C)C)[C@@H](C)O)C(C)C)[C@@H](C)CC)[C@@H](C)CC)[C@@H](C)CC)C(C)C)C(=O)O` [3102.0336] (H-VTNVIIIVI-OH) gave a pIC50 of 7.85.

Compound `CC[C@H](C)[C@H](NC(=O)[C@H](CO)NC(=O)[C@@H](NC(=O)[C@H](CCC(=O)O)NC(=O)[C@H](CC(N)=O)NC(=O)[C@H](Cc1ccc(O)cc1)NC(=O)[C@@H](NC(=O)[C@@H](NC(=O)[C@@H](N)CCCNC(=N)N)[C@@H](C)O)[C@@H](C)CC)[C@@H](C)O)C(=O)O` [3102.0366] (H-RTIYNETSI-OH) showed a pIC50 of 9.00.

`CC[C@H](C)[C@H](N)C(=O)N[C@H](C(=O)N[C@@H](CCSC)C(=O)N[C@H](C(=O)N[C@@H](CC(N)=O)C(=O)N[C@@H](CO)C(=O)N[C@@H](CC(C)C)C(=O)N[C@H](C(=O)N[C@@H](Cc1ccc(O)cc1)C(=O)O)[C@@H](C)O)C(C)C)[C@@H](C)O` [3102.0363] (H-ITMVNSLTY-OH): the pIC50 is 7.02.

Regarding `CC[C@H](C)[C@H](NC(=O)[C@H](CO)NC(=O)[C@@H](NC(=O)CNC(=O)[C@H](CC(C)C)NC(=O)[C@@H](NC(=O)[C@H](CO)NC(=O)[C@H](CCSC)NC(=O)[C@@H](N)CCCCN)[C@@H](C)CC)C(C)C)C(=O)O` [3102.0388] (H-KMSILGVSI-OH), the pIC50 was 8.62.

In turn, `CC[C@H](C)[C@H](N)C(=O)N[C@@H](CO)C(=O)N[C@@H](Cc1c[nH]c2ccccc12)C(=O)N[C@@H](CCSC)C(=O)N[C@@H](CCSC)C(=O)N[C@@H](CCCCN)C(=O)N[C@@H](CC(C)C)C(=O)NCC(=O)N[C@H](C(=O)O)[C@@H](C)CC` [3102.0399] (H-ISWMMKLGI-OH) gave a pIC50 of 7.38.

As for `CC[C@H](C)[C@H](NC(=O)[C@@H](NC(=O)[C@H](Cc1ccc(O)cc1)NC(=O)[C@H](CCC(=O)O)NC(=O)[C@H](CCCCN)NC(=O)[C@H](Cc1ccccc1)NC(=O)[C@H](CC(N)=O)NC(=O)[C@H](CC(C)C)NC(=O)[C@@H](N)C(C)C)[C@@H](C)O)C(=O)O` [3102.0371] (H-VLNFKEYTI-OH), the pIC50 is 8.09.

As to `CC[C@H](C)[C@H](NC(=O)[C@@H](N)CO)C(=O)N[C@@H](Cc1ccc(O)cc1)C(=O)N[C@@H](CCCNC(=N)N)C(=O)N[C@@H](CCSC)C(=O)N[C@@H](CO)C(=O)N[C@@H](Cc1ccc(O)cc1)C(=O)N[C@@H](CCC(N)=O)C(=O)N[C@@H](Cc1ccccc1)C(=O)O` [3102.0425] (H-SIYRMSYQF-OH), the pIC50 is 9.10.

For `C[C@@H](O)[C@H](NC(=O)[C@H](CCCNC(=N)N)NC(=O)[C@H](CC(N)=O)NC(=O)[C@H](Cc1ccccc1)NC(=O)[C@@H](NC(=O)[C@@H](N)CCCNC(=N)N)[C@@H](C)O)C(=O)N[C@@H](Cc1c[nH]cn1)C(=O)N[C@@H](Cc1ccc(O)cc1)C(=O)N[C@@H](Cc1c[nH]c2ccccc12)C(=O)O` [3102.0309] (H-RTFNRTHYW-OH), the negative-log IC50 (pIC50) was 9.62.

In turn, `CC[C@H](C)[C@H](NC(=O)[C@@H](NC(=O)[C@@H](NC(=O)[C@H](CC(N)=O)NC(=O)[C@H](Cc1ccccc1)NC(=O)[C@H](Cc1ccccc1)NC(=O)[C@@H](NC(=O)[C@@H](NC(=O)[C@@H](N)C(C)C)C(C)C)[C@@H](C)CC)[C@@H](C)O)[C@@H](C)CC)C(=O)O` [3102.0431] (H-VVIFFNTII-OH) had a pIC50 of 7.82.

`CC[C@H](C)[C@H](NC(=O)[C@H](C)NC(=O)[C@H](CCC(N)=O)NC(=O)[C@H](Cc1ccccc1)NC(=O)[C@H](C)NC(=O)[C@H](Cc1ccccc1)NC(=O)[C@H](CO)NC(=O)[C@@H](NC(=O)[C@@H](N)CCCNC(=N)N)[C@@H](C)O)C(=O)O` [3102.0512] (H-RTSFAFQAI-OH): the pIC50 is 8.42.

`CC(C)C[C@H](NC(=O)[C@@H](N)C(C)C)C(=O)N[C@@H](Cc1ccc(O)cc1)C(=O)N[C@@H](CC(N)=O)C(=O)N[C@@H](CC(N)=O)C(=O)N[C@H](C(=O)N[C@H](C(=O)N[C@@H](CCC(=O)O)C(=O)N[C@@H](Cc1ccccc1)C(=O)O)C(C)C)C(C)C` [3102.0424] (H-VLYNNVVEF-OH) had a pIC50 of 8.82.

`CC[C@H](C)[C@H](NC(=O)[C@H](CC(N)=O)NC(=O)[C@H](CC(N)=O)NC(=O)[C@@H](NC(=O)[C@@H]1CCCN1C(=O)[C@H](CCC(N)=O)NC(=O)[C@H](CC(N)=O)NC(=O)[C@H](CC(C)C)NC(=O)[C@@H](N)CCCNC(=N)N)C(C)C)C(=O)O` [3102.0398] (H-RLNQPVNNI-OH) showed a pIC50 of 7.60.

The compound `CC[C@H](C)[C@H](N)C(=O)N[C@H](C(=O)N[C@@H](Cc1ccccc1)C(=O)N[C@@H](Cc1ccccc1)C(=O)N[C@H](C(=O)N[C@H](C(=O)N[C@@H](CC(C)C)C(=O)N[C@H](C(=O)N[C@@H](CC(C)C)C(=O)O)[C@@H](C)CC)C(C)C)[C@@H](C)CC)[C@@H](C)CC` [3102.0436] (H-IIFFIVLIL-OH) had a pIC50 of 7.92.

On to `CC[C@H](C)[C@H](NC(=O)[C@@H](NC(=O)[C@H](CC(C)C)NC(=O)[C@@H](NC(=O)[C@H](CO)NC(=O)[C@H](CO)NC(=O)[C@@H](NC(=O)[C@H](CO)NC(=O)[C@H](C)N)[C@@H](C)CC)C(C)C)[C@@H](C)O)C(=O)O` [3102.0373] (H-ASISSVLTI-OH), for which the pIC50 is 7.89.

In the case of `CSCC[C@H](N)C(=O)N[C@H](C(=O)N[C@@H](CS)C(=O)NCC(=O)N[C@@H](CCC(N)=O)C(=O)N1CCC[C@H]1C(=O)N[C@@H](CC(C)C)C(=O)N[C@@H](CO)C(=O)N[C@@H](CC(C)C)C(=O)O)[C@@H](C)O` [3102.0339] (H-MTCGQPLSL-OH), the pIC50 is 8.25.

`CC[C@H](C)[C@H](NC(=O)[C@@H](NC(=O)[C@H](CC(C)C)NC(=O)[C@@H](NC(=O)[C@H](CCCNC(=N)N)NC(=O)[C@H](CC(N)=O)NC(=O)[C@@H](NC(=O)[C@@H](NC(=O)CN)[C@@H](C)O)[C@@H](C)CC)[C@@H](C)CC)C(C)C)C(=O)O` [3102.0337] (H-GTINRILVI-OH) gave a pIC50 of 7.82.

Turning to `CC(C)C[C@H](NC(=O)[C@H](CO)NC(=O)[C@@H](N)CCCCN)C(=O)N[C@@H](CCCCN)C(=O)N[C@@H](CCCCN)C(=O)N[C@H](C(=O)N[C@@H](Cc1ccc(O)cc1)C(=O)N[C@H](C(=O)N[C@@H](Cc1ccccc1)C(=O)O)[C@@H](C)O)C(C)C` [3102.0442] (H-KSLKKVYTF-OH), the pIC50 was 9.31.

Take `CC[C@H](C)[C@H](NC(=O)[C@@H](NC(=O)[C@@H](NC(=O)[C@H](Cc1c[nH]cn1)NC(=O)[C@H](CC(C)C)NC(=O)[C@H](CCSC)NC(=O)[C@H](CC(N)=O)NC(=O)[C@H](CCC(N)=O)NC(=O)[C@@H](N)CCCCN)C(C)C)[C@@H](C)CC)C(=O)O` [3102.0329] (H-KQNMLHVII-OH): the pIC50 is 8.68.

For `CC[C@H](C)[C@H](NC(=O)[C@@H](NC(=O)[C@H](CC(N)=O)NC(=O)[C@H](CO)NC(=O)[C@H](CC(N)=O)NC(=O)[C@H](C)NC(=O)[C@@H](NC(=O)[C@@H](NC(=O)[C@@H](N)CO)[C@@H](C)O)[C@@H](C)CC)[C@@H](C)CC)C(=O)O` [3102.0451] (H-STIANSNII-OH), the pIC50 was 7.85.

The compound `CC[C@H](C)[C@H](NC(=O)[C@H](Cc1ccc(O)cc1)NC(=O)CNC(=O)[C@H](CO)NC(=O)[C@@H](NC(=O)[C@@H](N)CCCCN)[C@@H](C)O)C(=O)N[C@@H](CO)C(=O)N[C@@H](CO)C(=O)N[C@@H](Cc1ccccc1)C(=O)O` [3102.0408] (H-KTSGYISSF-OH) showed a pIC50 of 9.30.

On to `CC[C@H](C)[C@H](N)C(=O)N[C@@H](CC(C)C)C(=O)N[C@H](C(=O)N[C@H](C(=O)N[C@@H](Cc1ccccc1)C(=O)N[C@H](C(=O)N[C@H](C(=O)N[C@@H](C)C(=O)N[C@H](C(=O)O)[C@@H](C)CC)C(C)C)[C@@H](C)O)[C@@H](C)CC)C(C)C` [3102.0411] (H-ILVIFTVAI-OH), for which the pIC50 was 7.82.
